Laboratory results published in ChEMBL document CHEMBL1126756, “Studies on neurokinin antagonists. 3. Design and structure-activity relationships of new branched tripeptides N alpha-(substituted L-aspartyl, L-ornithyl, or L-lysyl)-N-methyl-N-(phenylmethyl)-L-phenylalaninamides as substance P antagonists” (J Med Chem, 1993).
The source made the active and inactive calls. No cut-off for these calls is given here.

Columns and labels:
[1] = molecular target: Substance-P receptor (Cavia porcellus) (UniProt P30547); experiment: Tested for percent inhibition against [3H]SP (substance P) binding against NK1 receptor relative to compound 5 (100); settings: concentration not given here
Substance-P receptor (Cavia porcellus), sequence (P30547 whole entry): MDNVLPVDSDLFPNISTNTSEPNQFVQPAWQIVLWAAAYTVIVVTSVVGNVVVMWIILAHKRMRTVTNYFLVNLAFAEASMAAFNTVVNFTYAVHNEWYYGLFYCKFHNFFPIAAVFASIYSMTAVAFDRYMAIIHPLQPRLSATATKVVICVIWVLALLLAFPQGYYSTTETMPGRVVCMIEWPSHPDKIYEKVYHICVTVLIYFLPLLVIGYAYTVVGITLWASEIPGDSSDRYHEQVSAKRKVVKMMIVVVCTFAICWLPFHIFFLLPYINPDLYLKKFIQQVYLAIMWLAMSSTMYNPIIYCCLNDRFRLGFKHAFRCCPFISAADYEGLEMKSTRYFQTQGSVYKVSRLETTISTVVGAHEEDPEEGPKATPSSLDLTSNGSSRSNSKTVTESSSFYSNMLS

[2] = molecular target: Substance-P receptor (Cavia porcellus, UniProt P30547); experiment: Tested for inhibition against [3H]-SP (substance P) (1 nM) binding to NK1 receptor in guinea pig lung membranes; format: cell membranes, Membrane
Substance-P receptor, sequence (P30547 whole entry): as above

[3] = molecular target: Substance-P receptor (Cavia porcellus) (UniProt P30547); experiment: Tested for percent inhibition against [3H]SP (substance P) binding against NK1 receptor relative to compound 7 at 100 ng/mL; No inhibition
[4] = molecular target: Substance-P receptor (Cavia porcellus) (UniProt P30547); experiment: Percent inhibition of [3H]-SP (substance P) binding to NK1 receptor relative to compound 7 (100); design: concentration or dose not given beside the values; settings: concentration not given here
[5] = molecular target: Substance-P receptor (Cavia porcellus) (UniProt P30547); experiment: Tested for percent inhibition against [3H]-SP (substance P) binding against NK1 receptor; settings: concentration not given here
[6] = molecular target: Substance-P receptor (Cavia porcellus) (UniProt P30547); experiment: Tested for percent inhibition against [3H]SP (substance P) binding against NK1 receptor relative to compound; settings: concentration not given here
[7] = molecular target: Substance-P receptor (Cavia porcellus) (UniProt P30547); experiment: Tested for percent inhibition against [3H]-SP (substance P) binding against NK1 receptor relative to compound 5 at 100 ng/mL; No inhibition

With CN(Cc1ccccc1)C(=O)[C@@H](Cc1ccccc1)NC(=O)C(CC(=O)NC(CCC(N)=O)C(=O)NC(C)(C)C)NC(=O)c1c[nH]c2ccccc12 (stereo partly drawn) the inhibition [1] was 96%.
CC(=O)NC(C(=O)NCCCCC(NC(=O)c1cc2ccccc2[nH]1)C(=O)N[C@H](Cc1ccccc1)C(=O)N(C)Cc1ccccc1)[C@@H](C)O (stereo partly drawn) showed an IC50 [2] of 19 nM.
With CN(Cc1ccccc1)C(=O)[C@@H](Cc1ccccc1)NC(=O)C(CC(=O)NCC(N)=O)NC(=O)c1c[nH]c2ccccc12 (stereo partly drawn) the inhibition [1] was 128%.
CN(Cc1ccccc1)C(=O)[C@@H](Cc1ccccc1)NC(=O)C(CC(=O)NC(CO)C(N)=O)NC(=O)c1c[nH]c2ccccc12 (stereo partly drawn) gave an inhibition [1] of 100%.
For CC(=O)NC(CCCCNC(=O)C(NC(C)=O)C(C)O)C(=O)N[C@H](Cc1ccccc1)C(=O)N(C)Cc1ccccc1 (stereo partly drawn), the inhibition [3] was “inactive”.
CN(Cc1ccccc1)C(=O)[C@@H](Cc1ccccc1)NC(=O)C(CCCCNC(=O)C(C)(C)C)NC(=O)c1c[nH]c2ccccc12 (stereo partly drawn) showed an inhibition [4] of 44%.
CC(=O)N[C@H](C(=O)NCCCC[C@@H](NC(=O)c1c[nH]c2ccccc12)C(=O)N[C@H](Cc1ccccc1)C(=O)N(C)Cc1ccccc1)[C@@H](C)O was tested, and the inhibition [3] was “inactive”.
Compound CN(C)C(=O)NCCCCC(NC(=O)c1c[nH]c2ccccc12)C(=O)N[C@H](Cc1ccccc1)C(=O)N(C)Cc1ccccc1 (stereo partly drawn) has an inhibition [4] of 144%.
For C[C@@H](O)C(NC(=O)CC(NC(=O)c1cc2ccccc2[nH]1)C(=O)N[C@H](Cc1ccccc1)C(=O)N(C)Cc1ccccc1)C(N)=O (stereo partly drawn), the IC50 [2] was 54 nM.
With CN(Cc1ccccc1)C(=O)[C@@H](Cc1ccccc1)NC(=O)C(CCCCNC(=O)N1CCOCC1)NC(=O)c1c[nH]c2ccccc12 (stereo partly drawn) the inhibition [4] was 53%.
CC(=O)NCC(=O)NCCCCC(NC(=O)c1c[nH]c2ccccc12)C(=O)N[C@H](Cc1ccccc1)C(=O)N(C)Cc1ccccc1 (stereo partly drawn) showed an inhibition [4] of 98%.
Compound CC(=O)N[C@H](C(=O)NCCCC[C@H](NC(=O)c1c[nH]c2ccccc12)C(=O)N[C@H](Cc1ccccc1)C(=O)N(C)Cc1ccccc1)[C@@H](C)O has an IC50 [2] of 13 nM and an inhibition [5] of 100%.
In the case of CC(=O)NCCCCC(NC(=O)c1c[nH]c2ccccc12)C(=O)N[C@H](Cc1ccccc1)C(=O)N(C)Cc1ccccc1 (stereo partly drawn), the inhibition [4] is reported as 87%.
C[C@@H](O)C(NC(=O)CC(NC(=O)c1c[nH]c2ccccc12)C(=O)N[C@H](Cc1ccccc1)C(=O)N(C)Cc1ccccc1)C(N)=O (stereo partly drawn) gave an inhibition [6] of 100% and an IC50 [2] of 23 nM.
Compound CN(Cc1ccccc1)C(=O)[C@@H](Cc1ccccc1)NC(=O)C(CCCCN)NC(=O)c1c[nH]c2ccccc12 (stereo partly drawn) has an inhibition [4] of 91%.
In the case of CC(=O)NC(C(=O)NCCCC(NC(=O)c1c[nH]c2ccccc12)C(=O)N[C@H](Cc1ccccc1)C(=O)N(C)Cc1ccccc1)[C@@H](C)O (stereo partly drawn), the IC50 [2] is reported as 21 nM.
CC(=O)NC(CO)C(=O)NCCCCC(NC(=O)c1c[nH]c2ccccc12)C(=O)N[C@H](Cc1ccccc1)C(=O)N(C)Cc1ccccc1 (stereo partly drawn) was tested, and the inhibition [4] was 136%.
CC(O)C(NC(=O)CC(N)C(=O)N[C@H](Cc1ccccc1)C(=O)N(C)Cc1ccccc1)C(N)=O (stereo partly drawn) was tested, and the inhibition [7] was “inactive”.
CC(=O)NC(C(=O)NCCCCC(N)C(=O)N[C@H](Cc1ccccc1)C(=O)N(C)Cc1ccccc1)C(C)O (stereo partly drawn) was tested, and the inhibition [3] was “inactive”.
With CN(Cc1ccccc1)C(=O)[C@@H](Cc1ccccc1)NC(=O)C(CCCCNC(=O)OCc1ccccc1)NC(=O)c1cc2ccccc2[nH]1 (stereo partly drawn) the inhibition [4] was 22%.
In the case of CC(=O)NC(C(=O)NCCCCC(NC(=O)c1ccccc1)C(=O)N[C@H](Cc1ccccc1)C(=O)N(C)Cc1ccccc1)C(C)O (stereo partly drawn), the inhibition [3] is reported as “inactive”.
Work on CC(O)C(NC(=O)OC(C)(C)C)C(=O)NCCCCC(NC(=O)c1c[nH]c2ccccc12)C(=O)N[C@H](Cc1ccccc1)C(=O)N(C)Cc1ccccc1 (stereo partly drawn) yielded an inhibition [4] of 98%.
CC(O)C(NC(=O)CC(NC(=O)OC(C)(C)C)C(=O)N[C@H](Cc1ccccc1)C(=O)N(C)Cc1ccccc1)C(N)=O (stereo partly drawn) was tested, and the inhibition [7] was “inactive”.
CN(Cc1ccccc1)C(=O)[C@@H](Cc1ccccc1)NC(=O)C(CC(=O)NC(CCC(N)=O)C(N)=O)NC(=O)c1c[nH]c2ccccc12 (stereo partly drawn) was tested, and the inhibition [1] was 56%.
CC(=O)NCCC(=O)NCCCCC(NC(=O)c1c[nH]c2ccccc12)C(=O)N[C@H](Cc1ccccc1)C(=O)N(C)Cc1ccccc1 (stereo partly drawn) gave an inhibition [4] of 82%.
For CC(=O)NC(C(=O)NCCCCC(NC(=O)OC(C)(C)C)C(=O)N[C@H](Cc1ccccc1)C(=O)N(C)Cc1ccccc1)C(C)O (stereo partly drawn), the inhibition [3] was “inactive”.
